Where “and” joins values, the source holds several entries; their conditions need not be identical. Equal entries are not always repeated. Structures can show the parent of a compound that is named as a salt. Marks after values point to notes of the source that are not given here.
How the values were obtained:
human TLR7 = human TLR7 (Homo sapiens (Human), UniProt Q9NYK1); experiment: TLR7 reporter assay (HEK293-TLR-NF-κB inducible SEAP reporter); format: cell-based; conditions: HEK293 cells stably expressing human TLR7 with NF-κB-driven SEAP reporter; 15-24 hours
Text: The engagement of TLRs by cognate ligands triggers downstream signaling cascades, leading to the activation of NF-κB and other transcription factors which initiate various immunomodulatory effects. The human embryonic kidney cell line, HEK293, is essentially non-responsive to TLR agonists, but ectopic expression of TLRs in these cells allows cognate agonists to activate endogenous NF-κB. Accordingly, the HEK293-TLR-NF-κB inducible reporter system is used to assay TLR agonists. HEK293 cell lines stably expressing human TLR7 or TLR8 together with an NF-κB-driven-secreted alkaline phosphatase (SEAP) reporter were invented at InvivoGen (San Diego, Calif., USA) and used to assess compounds of the present invention for TLR7 and TLR8 agonist activities. Cells were seeded at 2-5×10^4 cells/well in 96 well plates ([…]) and treated with various concentrations of compound (10 μl) for 15-24 hours. SEAP activity was determined by measuring OD at 650 nm; the media used to culture the cell lines contains the reagents required for SEAP detection. The EC50 values in Table 2 are calculated from fitting the dose response of measured SEAP activity for each compound to the following equation: Y=ymax*c^nh/(EC50^nh+c^nh)+blank where Y is the experimentally measured OD650 at concentration c of test article, blank is the observed OD650 in the absence of TLR7 agonist, ymax is the difference between the measured OD650 in the presence of either 28.5 μM resiquimod or 1.675 μM CL307 and the blank and values of EC50 and nh are determined by nonlinear least squares analysis.

[1] = test system: interferon-α production in hPBMCs; experiment: Induction of interferon-α production in hPBMCs; format: cell-based, human; conditions: interferon-α production from hPBMCs; for Weighted MEC: geometric mean of all individual MECs across all donors, 24 hours; for individual MEC values: per donor
Procedure: Treatment of hPBMCs with a TLR7 agonist typically induces substantial production of interferon-α as well as lesser amounts of a variety of other cytokines and chemokines. A typical experiment uses hPBMCs isolated from a healthy donor and placed in replicate cell culture wells; typically 1.0-7.5×10^6 cells are placed in each well. Test compound is added and the cells cultured for 24 hours at 37° C. in a humidified atmosphere containing 5% CO2 post-addition; untreated controls are included. Secreted interferon-α production is measured using an a multisubtype interferon-α ELISA kit like those from PBL Assay Sciences or specifically as IFNα2a as part of a panel of cytokines and chemokines using luminex methodologies. The minimal effective concentration (MEC) is the minimum concentration in a dose response curve where a significant increase in interferon-α production (generally at least 20 pg/ml) is observed above baseline. MEC values for each compound are determined for at least three donors. The weighted MEC for each compound is the geometric mean of all individual MECs across all donors. Concentrations tested typically consist of a two-fold dilution series starting at 100 μM. In the calculation of weighted MEC, any value >100 μM is arbitrarily set to 200 μM unless all MECs for a compound exceed 100 μM

human TLR7, sequence (Q9NYK1 27-1049): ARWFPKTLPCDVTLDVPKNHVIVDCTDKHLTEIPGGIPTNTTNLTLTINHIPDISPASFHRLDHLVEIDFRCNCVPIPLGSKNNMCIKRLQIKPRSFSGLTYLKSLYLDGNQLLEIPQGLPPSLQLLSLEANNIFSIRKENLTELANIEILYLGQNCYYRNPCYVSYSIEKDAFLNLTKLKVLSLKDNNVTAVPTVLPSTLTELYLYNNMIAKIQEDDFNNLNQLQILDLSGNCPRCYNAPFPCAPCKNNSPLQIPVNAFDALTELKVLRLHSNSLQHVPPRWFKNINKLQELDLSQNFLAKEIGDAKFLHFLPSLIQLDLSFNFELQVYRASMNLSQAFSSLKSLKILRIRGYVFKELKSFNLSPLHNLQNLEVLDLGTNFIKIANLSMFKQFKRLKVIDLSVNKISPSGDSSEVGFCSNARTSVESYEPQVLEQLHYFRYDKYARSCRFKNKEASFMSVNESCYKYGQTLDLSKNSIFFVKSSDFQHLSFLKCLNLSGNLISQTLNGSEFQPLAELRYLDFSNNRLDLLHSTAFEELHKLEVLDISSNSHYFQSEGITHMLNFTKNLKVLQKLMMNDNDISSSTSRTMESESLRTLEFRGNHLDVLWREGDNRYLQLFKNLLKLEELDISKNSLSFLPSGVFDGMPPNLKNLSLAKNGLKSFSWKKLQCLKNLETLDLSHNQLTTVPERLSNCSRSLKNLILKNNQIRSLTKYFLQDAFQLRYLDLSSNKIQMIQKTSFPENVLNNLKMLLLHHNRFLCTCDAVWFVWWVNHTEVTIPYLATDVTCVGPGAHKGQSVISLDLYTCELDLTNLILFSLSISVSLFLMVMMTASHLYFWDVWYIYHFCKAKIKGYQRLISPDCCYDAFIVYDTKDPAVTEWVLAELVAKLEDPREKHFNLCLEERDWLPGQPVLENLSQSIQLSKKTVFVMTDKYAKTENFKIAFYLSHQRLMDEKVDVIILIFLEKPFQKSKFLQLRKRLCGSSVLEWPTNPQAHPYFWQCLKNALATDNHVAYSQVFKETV

EC50 (human TLR7) | Compound | Weighted MEC [1] | individual MEC values [1]
298 µM | C=CCn1c(=O)n([C@@H]2O[C@H](CO)[C@H](O)[C@H]2O)c2nc(N)[nH]c(=O)c21 [Compound 2, 7-Allyl-2-amino-9-((2R,3R,4R,5R)-3,4-dihydroxy-5-(hydroxymethyl)tetrahydrofuran-2-yl)-7,9-dihydro-1H-purine-6,8-dione] | 79 µM | –
835 µM | CC#CCn1c(=O)n([C@@H]2O[C@H](CO)[C@H](O)[C@H]2O)c2nc(N)[nH]c(=O)c21 [Compound 6, 2-Amino-7-(but-2-yn-1-yl)-9-((2R,3R,4R,5R)-3,4-dihydroxy-5-(hydroxymethyl)tetrahydrofuran-2-yl)-7,9-dihydro-1H-purine-6,8-dione] | 79 µM | –
535 µM | C/C=C/Cn1c(=O)n([C@@H]2O[C@H](CO)[C@H](O)[C@H]2O)c2nc(N)[nH]c(=O)c21 [Compound 7, 2-Amino-7-((E)-but-2-en-1-yl)-9-((2R,3R,4R,5R)-3,4-dihydroxy-5-(hydroxymethyl)tetrahydrofuran-2-yl)-7,9-dihydro-1H-purine-6,8-dione] | 63 µM | –
413 µM | Nc1nc2c(c(=O)[nH]1)n(C/C=C/CO)c(=O)n2[C@@H]1O[C@H](CO)[C@H](O)[C@H]1O [Compound 8, 2-Amino-9-((2R,3R,4R,5R)-3,4-dihydroxy-5-(hydroxymethyl)tetrahydrofuran-2-yl)-7-((E)-4-hydroxybut-2-en-1-yl)-7,9-dihydro-1H-purine-6,8-dione] | >100* μM | –
15 µM | Nc1nc2c(c(=O)[nH]1)n(C/C=C/C(=O)O)c(=O)n2[C@@H]1O[C@H](CO)[C@H](O)[C@H]1O [Compound 9, (E)-4-(2-Amino-9-((2R,3R,4R,5R)-3,4-dihydroxy-5-(hydroxymethyl)tetrahydrofuran-2-yl)-6,8-dioxo-1,6,8,9-tetrahydro-7H-purin-7-yl)but-2-enoic Acid] | >100* μM | –
248 µM | COC(=O)/C=C/Cn1c(=O)n([C@@H]2O[C@H](CO)[C@H](O)[C@H]2O)c2nc(N)[nH]c(=O)c21 [Compound 10, Methyl (E)-4-(2-amino-9-((2R,3R,4R,5R)-3,4-dihydroxy-5-(hydroxymethyl)tetrahydrofuran-2-yl)-6,8-dioxo-1,6,8,9-tetrahydro-7H-purin-7-yl)but-2-enoate] | >100* μM | –
249 µM | Nc1nc2c(c(=O)[nH]1)n(CC#CCO)c(=O)n2[C@@H]1O[C@H](CO)[C@H](O)[C@H]1O [Compound 11, 2-Amino-9-((2R,3R,4R,5R)-3,4-dihydroxy-5-(hydroxymethyl)tetrahydrofuran-2-yl)-7-(4-hydroxybut-2-yn-1-yl)-7,9-dihydro-1H-purine-6,8-dione] | 79 µM | –
407 µM | COC(=O)Cn1c(=O)n([C@@H]2O[C@H](CO)[C@H](O)[C@H]2O)c2nc(N)[nH]c(=O)c21 [Compound 12, Methyl 2-(2-amino-9-((2R,3R,4R,5R)-3,4-dihydroxy-5-(hydroxymethyl)tetrahydrofuran-2-yl)-6,8-dioxo-1,6,8,9-tetrahydro-7H-purin-7-yl)acetate] | >100* μM | –
151 µM | Nc1nc2c(c(=O)[nH]1)n(CC(F)(F)F)c(=O)n2[C@@H]1O[C@H](CO)[C@H](O)[C@H]1O [Compound 13, 2-Amino-9-((2R,3R,4R,5R)-3,4-dihydroxy-5-(hydroxymethyl)tetrahydrofuran-2-yl)-7-(2,2,2-trifluoroethyl)-7,9-dihydro-1H-purine-6,8-dione] | 66* μM | –
180 µM | Nc1nc2c(c(=O)[nH]1)n(CC(F)F)c(=O)n2[C@@H]1O[C@H](CO)[C@H](O)[C@H]1O [Compound 14, 2-Amino-7-(2,2-difluoroethyl)-9-((2R,3R,4R,5R)-3,4-dihydroxy-5-(hydroxymethyl)tetrahydrofuran-2-yl)-7,9-dihydro-1H-purine-6,8-dione] | 100* μM | –
> 500 µM | Cn1c(=O)n([C@@H]2O[C@H](CO)[C@H](O)[C@H]2O)c2nc(N)[nH]c(=O)c21 [Compound 15, 2-Amino-9-((2R,3R,4R,5R)-3,4-dihydroxy-5-(hydroxymethyl)tetrahydrofuran-2-yl)-7-methyl-7,9-dihydro-1H-purine-6,8-dione] | – | –
534 µM | CCn1c(=O)n([C@@H]2O[C@H](CO)[C@H](O)[C@H]2O)c2nc(N)[nH]c(=O)c21 [Compound 16, 2-Amino-9-((2R,3R,4R,5R)-3,4-dihydroxy-5-(hydroxymethyl)tetrahydrofuran-2-yl)-7-ethyl-7,9-dihydro-1H-purine-6,8-dione] | >100* μM | –
337 µM | CCCn1c(=O)n([C@@H]2O[C@H](CO)[C@H](O)[C@H]2O)c2nc(N)[nH]c(=O)c21 [Compound 17, 2-Amino-9-((2R,3R,4R,5R)-3,4-dihydroxy-5-(hydroxymethyl)tetrahydrofuran-2-yl)-7-propyl-7,9-dihydro-1H-purine-6,8-dione] | 100* μM | –
330 µM | CCCCn1c(=O)n([C@@H]2O[C@H](CO)[C@H](O)[C@H]2O)c2nc(N)[nH]c(=O)c21 [Compound 18, 2-Amino-7-butyl-9-((2R,3R,4R,5R)-3,4-dihydroxy-5-(hydroxymethyl)tetrahydrofuran-2-yl)-7,9-dihydro-1H-purine-6,8-dione] | less than or equal to 40 μM and 37 μM | < 100 µM
491 µM | Nc1nc2c(c(=O)[nH]1)n(CCCCO)c(=O)n2[C@@H]1O[C@H](CO)[C@H](O)[C@H]1O [Compound 19, 2-Amino-9-((2R,3R,4R,5R)-3,4-dihydroxy-5-(hydroxymethyl)tetrahydrofuran-2-yl)-7-(4-hydroxybutyl)-7,9-dihydro-1H-purine-6,8-dione] | >100* μM | –
79 µM | Nc1nc2c(c(=O)[nH]1)n(CCCC(=O)O)c(=O)n2[C@@H]1O[C@H](CO)[C@H](O)[C@H]1O [Compound 20, 4-(2-Amino-9-((2R,3R,4R,5R)-3,4-dihydroxy-5-(hydroxymethyl)tetrahydrofuran-2-yl)-6,8-dioxo-1,6,8,9-tetrahydro-7H-purin-7-yl)butanoic Acid] | >100* μM | –
520 µM | COC(=O)CCCn1c(=O)n([C@@H]2O[C@H](CO)[C@H](O)[C@H]2O)c2nc(N)[nH]c(=O)c21 [Compound 21, Methyl 4-(2-amino-9-((2R,3R,4R,5R)-3,4-dihydroxy-5-(hydroxymethyl)tetrahydrofuran-2-yl)-6,8-dioxo-1,6,8,9-tetrahydro-7H-purin-7-yl)butanoate] | >100* μM | –
567 µM | COCCn1c(=O)n([C@@H]2O[C@H](CO)[C@H](O)[C@H]2O)c2nc(N)[nH]c(=O)c21 [Compound 22, 2-Amino-9-((2R,3R,4R,5R)-3,4-dihydroxy-5-(hydroxymethyl)tetrahydrofuran-2-yl)-7-(2-methoxyethyl)-7,9-dihydro-1H-purine-6,8-dione] | >100* μM | –
> 500 µM | NCCn1c(=O)n([C@@H]2O[C@H](CO)[C@H](O)[C@H]2O)c2nc(N)[nH]c(=O)c21 [Compound 23, 2-Amino-7-(2-aminoethyl)-9-((2R,3R,4R,5R)-3,4-dihydroxy-5-(hydroxymethyl)tetrahydrofuran-2-yl)-7,9-dihydro-1H-purine-6,8-dione hydrochloride] | – | –
470 µM | C#CCn1c(=O)n([C@@H]2O[C@H](CO)[C@H](F)[C@H]2O)c2nc(N)[nH]c(=O)c21 [Compound 28, 2-Amino-9-((2R,3S,4R,5R)-4-fluoro-3-hydroxy-5-(hydroxymethyl)tetrahydrofuran-2-yl)-7-(prop-2-yn-1-yl)-7,9-dihydro-1H-purine-6,8-dione] | less than or equal to 40 μM and 33 μM | < 100 µM
688 µM | Nc1nc2c(c(=O)[nH]1)n(Cc1ccccc1)c(=O)n2[C@@H]1O[C@H](CO)C[C@H]1O [Compound 33, 2-Amino-7-benzyl-9-((2R,3R,5S)-3-hydroxy-5-(hydroxymethyl)tetrahydrofuran-2-yl)-7,9-dihydro-1H-purine-6,8-dione] | 79* μM | –

— patent US11059824B2, “Substituted purines as TLR7 agonists” (Primmune Therapeutics, Inc., priority 2018, dated 2021)
